The results in this text go back to EP0408294B1, “Use of an amylin antagonist for the manufacture of amedicament for the treatment of obesity and essential hypertension and related disorders” (AMYLIN PHARMACEUTICALS, INC., priority 1989, dated 1995).

Positions of bridges follow the written chain, without caps; N, C: chain ends. No end group written: not given here.

For assay [1], the system named is isolated soleus muscle. Put plainly: amylin antagonist assay: incorporation of radiolabelled glucose into glycogen in isolated soleus muscle. To be noted: 1000µU/mL insulin, 20nM amylin. The format is cell-based, rats. Here is the method:
In a further experiment we have shown that the […] CGRP 8-37 also functions as a partial amylin antagonist. Insulin was obtained as Humulin-R, 100U/mL, recombinant human insulin (Eli Lilly, Indianapolis, IN). Amylin, obtained as rat amylin (Bachem, Torrance, CA) and 8-37 human CGRP (Bachem, Torrance CA) were also used. An antagonist assay was performed in vitro using the isolated soleus muscle from rats. It measured the rate of incorporation of radiolabelled glucose into muscle glycogen as follows: (1) under hormone-free conditions (zero insulin, zero amylin, zero hCGRP₈₋₃₇ [antagonist]); (2) under conditions of stimulation of glycogen formation with insulin (1000µU/mL insulin, zero amylin, zero antagonist); (3) under conditions where the near maximal stimulation of glycogen formation has been inhibited with amylin (1000µU/mL insulin, 20nM amylin, zero antagonist); and, (4) under conditions where the suppression of glycogen formation by amylin has been disinhibited by an antagonist to the amylin action (1000µU/mL insulin, 20nM amylin, range of concentrations of antagonist [0, 1nM, 10nM, 100nM, 300nM, 1µM, 10µM]) There were therefore […] (conditions 1,2,3 and […] of condition 4). […]

Assay [2] deals with normal rats. Put plainly: intravenous amylin bolus in normal rats. The format is in vivo. Here is the method: Similar results have been obtained using amylin. We have also shown that amylin acutely produces diabetes (fasting hyperglycemia greater than 140 mg/dL) when administered intravenously. Eight normal rats were injected with a 100µg bolus of amylin (rat amylin, Bachem, Torrance, CA). An intravenous amylin bolus produced a profound hyperglycemia to diabetic levels within 15-30 minutes (usually around 200 mg/dL). This hyperglycemia persists for several hours. The hyperglycemia is partly accounted for by an increase in hepatic (endogenous) glucose output and partly by an increased impediment in peripheral glucose disposal. […] There is an increase in respiratory quotient (RQ) after amylin only when somatostatin is absent and insulin is allowed to increase in response to hyperglycemia. During somatostatin infusion (no endogenous insulin release), there is no change in RQ, indicating no change from lipid to carbohydrate fuel usage in response to amylin in the fasted animal.

For assay [3], the system named is red skeletal muscle. Put plainly: glycogen synthesis in amylin-treated skeletal muscle in vitro. The format is cell-based, rat. To be noted: insulin at the concentration necessary for half-maximal stimulation in non amylin-treated muscles. The source says: (§1) In muscles treated with amylin, there was no response to insulin at the concentration necessary for half-maximal stimulation in non amylin-treated muscles. The effects of amylin were seen even in the presence of very low concentrations of insulin. Amylin produced a 30 percent reduction in the basal rate of glycogen synthesis in the presence of a basal concentration (1 µU/ml) of insulin. In marked contrast, amylin had no effect on either the basal or the insulin-stimulated rates of formation of CO₂ or triacyglycerol in isolated adipocytes. The effect of amylin treatment in muscle could only be overcome by increasing the concentration of insulin to the supra-physiological level of 1000 uU/ml.
(§2) • Figure 1 indicates the effect of amylin on the insulin-stimulated fate of glucose uptake in isolated incubated skeletal muscles of the rat. • Figure 2a indicates the effect of a CGRP infusion on glucose uptake in an anaesthetised rat under conditions of hyperinsulinaemic, euglycaemic glucose clamp, in which insulin alone was initially infused, following by insulin and CGRP. Similar results have been obtained with an infusion of amylin. • Figure 2b indicates the effect of an infusion of CGRP in an anaesthetised rat under conditions of hyperinsulinaemic, euglycaemic clamp, in which insulin and CGRP were initially infused together, followed by cessation of the CGRP infusion. […]

Assay [4] relates to isolated adipocytes. Put plainly: formation of CO₂ or triacyglycerol in isolated adipocytes. The format is cell-based.
Description: as §1
Amylin acts by reducing both basal and insulin-induced uptake of glucose into skeletal muscle, especially by reducing the rate of incorporation of glucose into glycogen, and also by reducing the rate of glucose uptake into muscle cells (Molina, M. et al., Science 1989; submitted). […] We have concluded that amylin causes the insulin-resistance in type 2 diabetes, probably in conjunction with CGRP and/or CGRP receptors.

Assay [5] relates to anaesthetised rats. Put plainly: hyperinsulinemic, euglycemic glucose clamp with CGRP infusion. The format is in vivo, rat. Here is the method: as §2, with “infusion. Similar results have been obtained with an infusion of amylin. • Figure 3 indicates the effect of CGRP on hepatic glucose output in anaesthetised rats, under conditions of hyperinsulinaemic, euglycaemic glucose clamp. Error bars give standard error of the mean. • Figure 4 indicates the effect of CGRP on insulin-stimulated glucose uptake in isolated BC3H-1 myocytes. • Figure 5 indicates the relationship between maximal insulin resistance, as measured by maximal insulin-stimulatable glucose disposal, and levels of serum CGRP-like immunoreactivity in the blood of a group of insulin-resistant type 2 diabetic human patients.” for “infusion.”

Regarding “CGRP₈₋₃₇: 8-37 human CGRP (Bachem), sub-peptide of CGRP, partial amylin antagonist”, in assay [1] (antagonist 1nM to 10µM, maximal increment), the “increment in the rate of glycogen synthesis from the amylin-inhibited level” value was “about 115%”. Besides, in assay [1] (4-parameter logistic fit, read-out: EC₅₀ for disinhibition (half maximal concentration)), the EC50 stood at 1.2 nM.

With “amylin: 37-amino acid peptide hormone from islet amyloid, Cys 2-7 disulfide bridge, amidated; rat amylin from Bachem used in tests (KCNTATCATQRLANFLVRSSNNLGPVLPPTNVGSNTY-NH2; disulfide 2-7; UniProt P12969 38-74, looked up)”, the persistence of hyperglycemia entry in assay [2] (100µg intravenous bolus of rat amylin) is on record as “several hours”. Besides, the “hyperglycemia (glucose level reached)” value in assay [2] (100µg intravenous bolus of rat amylin, eight normal rats) is on record as “around 200 mg/dL”. The “respiratory quotient (RQ)” value in assay [2] (after amylin, somatostatin absent, insulin allowed to increase in response to hyperglycemia) is “increase”; in assay [2] (during somatostatin infusion (no endogenous insulin release), fasted animal), “no change”. Moreover, in assay [2] (after intravenous amylin bolus), the plasma lactate result is “transient increase”. Further, the “response to insulin in muscles treated with amylin” value in assay [3] is on record as “no response”. Moreover, the “effect on basal or insulin-stimulated rates of formation of CO₂ or triacyglycerol” value in assay [4] was “no effect”.

For CGRP, the “glucose infusion rate, new steady state” value in assay [5] (Figure 2A protocol, CGRP 0.02 ug/kg/min from 80-150 minutes during constant insulin infusion 1.8 mU/kg/min) was 18.0 ± 0.1 mg/kg/min. Moreover, in assay [5] (Figure 2B protocol, 3H-glucose, last 20 mins of period, CGRP = CGRP plus insulin, insulin = insulin alone, basal GDR 11.2 ± 0.7), the “rise of glucose disposal rate (GDR) over basal” value turned out to be 7.4 ± 1.6 mg/kg/min.
